Assay results: PubChem BioAssay AID2060600 (Molecular Pharmacology Branch, DTP, NCI, 2025)
Where “and” joins values, the source holds several entries; their conditions need not be identical. Equal entries are not always repeated.

Tested on: 996289-038-R-J1-PDC complex spheroid viability
Assay: Anticancer human tumor 996289-038-R-J1-PDC patient-derived colon adenocarcinoma cell line growth inhibition [CLK]
Conditions: for viability, T/C: stronger effect = lower value
In short: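 Multi-cell-type spheroids combined patient-derived tumor cells with HUVEC endothelial cells and human mesenchymal stem cells. Paired agents were dosed in half-log steps down from about clinical Cmax, or from 10 microM where Cmax was unknown.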
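Further: spheroids exposed to the agents for 7 days before readout.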

CCN1CCN(Cc2ccc(Nc3ncc(F)c(-c4cc(F)c5nc(C)n(C(C)C)c5c4)n3)nc2)CC1 + CN1CCN(c2cc(C(=O)Nc3cc4cc(-c5cnn(C)c5)ccc4cn3)ccn2)CC1
IC50 (curve of first compound, second compound 0.0316 µM): > 1000 nM | IC50 (curve of first compound, second compound 0.1 µM): > 1000 nM | IC50 (curve of first compound, second compound 0.316 µM): 753 nM | IC50 (curve of first compound, second compound 1 µM): < 3.16 nM | IC50 (curve of first compound, second compound 3.16 µM): < 3.16 nM | IC50 (curve of first compound, second compound 10 µM): < 3.16 nM | viability, T/C (second compound 0.0316 µM, first compound 0.00316 µM): 95.8% | viability, T/C (second compound 0.0316 µM, first compound 0.01 µM): 97.3% | viability, T/C (second compound 0.0316 µM, first compound 0.0316 µM): 82.6% | viability, T/C (second compound 0.0316 µM, first compound 0.1 µM): 82.5% | viability, T/C (second compound 0.0316 µM, first compound 0.316 µM): 79.7% | viability, T/C (second compound 0.0316 µM, first compound 1 µM): 76.8% | viability, T/C (second compound 0.1 µM, first compound 0.00316 µM): 101% | viability, T/C (second compound 0.1 µM, first compound 0.01 µM): 85.7% | viability, T/C (second compound 0.1 µM, first compound 0.0316 µM): 86.4% | viability, T/C (second compound 0.1 µM, first compound 0.1 µM): 81.4% | viability, T/C (second compound 0.1 µM, first compound 0.316 µM): 68.8% | viability, T/C (second compound 0.1 µM, first compound 1 µM): 71% | viability, T/C (second compound 0.316 µM, first compound 0.00316 µM): 64.8% | viability, T/C (second compound 0.316 µM, first compound 0.01 µM): 62.5% | viability, T/C (second compound 0.316 µM, first compound 0.0316 µM): 58.7% | viability, T/C (second compound 0.316 µM, first compound 0.1 µM): 53.4% | viability, T/C (second compound 0.316 µM, first compound 0.316 µM): 51.3% | viability, T/C (second compound 0.316 µM, first compound 1 µM): 50.8% | viability, T/C (second compound 1 µM, first compound 0.00316 µM): 6.12% | viability, T/C (second compound 1 µM, first compound 0.01 µM): 6.14% | viability, T/C (second compound 1 µM, first compound 0.0316 µM): 7.95% | viability, T/C (second compound 1 µM, first compound 0.1 µM): 8.35% | viability, T/C (second compound 1 µM, first compound 0.316 µM): 10.1% | viability, T/C (second compound 1 µM, first compound 1 µM): 2.91% | viability, T/C (second compound 3.16 µM, first compound 0.00316 µM): 1.14% | viability, T/C (second compound 3.16 µM, first compound 0.01 µM): 1.05% | viability, T/C (second compound 3.16 µM, first compound 0.0316 µM): 0.74% | viability, T/C (second compound 3.16 µM, first compound 0.1 µM): 1.08% | viability, T/C (second compound 3.16 µM, first compound 0.316 µM): 1.2% | viability, T/C (second compound 3.16 µM, first compound 1 µM): 2.28% | viability, T/C (second compound 10 µM, first compound 0.00316 µM): 0.58% | viability, T/C (second compound 10 µM, first compound 0.01 µM): 0.55% | viability, T/C (second compound 10 µM, first compound 0.0316 µM): 0.57% | viability, T/C (second compound 10 µM, first compound 0.1 µM): 0.88% | viability, T/C (second compound 10 µM, first compound 0.316 µM): 0.37% | viability, T/C (second compound 10 µM, first compound 1 µM): 0.53%

O=C(c1cc(Cc2n[nH]c(=O)c3ccccc23)ccc1F)N1CCN(C(=O)C2CC2)CC1
viability, T/C (compound 0.0316 µM): 99.9% and 109% | viability, T/C (compound 0.1 µM): 98.6% and 86.6% | viability, T/C (compound 0.316 µM): 103% and 108% | viability, T/C (compound 1 µM): 99.1% and 105% | viability, T/C (compound 3.16 µM): 105% and 113% | viability, T/C (compound 10 µM): 93.9% and 104% | IC50 (curve of compound): > 10000 nM
